Experimental findings from ChEMBL document CHEMBL1157927, “Identification and structure-activity relationship of 8-hydroxy-quinoline-7-carboxylic acid derivatives as inhibitors of Pim-1 kinase” (Bioorg Med Chem Lett, 2010) are described below.

A word on the pIC50: it is −log10 of the IC50, conventionally taken in molar units. As usually defined, the inhibition is the change of the read-out against control, counted positive when it falls. Read a low inhibition as little suppression. Usually IC50 stands for the concentration that gives 50% inhibition.

pIC50: −log10 of the molar value.

Assay [1] has as its target T1, Serine/threonine-protein kinase pim-1 (Homo sapiens, UniProt P11309). Put plainly: Inhibition of PIM1.
Target sequence in this assay (P11309 whole entry): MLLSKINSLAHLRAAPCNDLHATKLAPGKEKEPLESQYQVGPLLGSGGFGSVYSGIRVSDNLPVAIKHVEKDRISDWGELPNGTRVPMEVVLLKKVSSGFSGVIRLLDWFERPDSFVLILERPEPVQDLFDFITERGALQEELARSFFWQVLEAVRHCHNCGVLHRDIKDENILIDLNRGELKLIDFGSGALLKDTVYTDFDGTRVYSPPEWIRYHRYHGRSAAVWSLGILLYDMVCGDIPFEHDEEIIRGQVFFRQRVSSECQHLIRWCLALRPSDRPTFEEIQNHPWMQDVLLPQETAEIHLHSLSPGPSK
In assay [2] the target is T1, Serine/threonine-protein kinase pim-1. Nature of the assay: Inhibition of PIM1 at 10 uM.
Target sequence in this assay (P11309 whole entry, looked up): as the sequence (P11309 whole entry) above
For assay [3], the target named is Glycogen synthase kinase-3 (Homo sapiens, UniProt P49840+P49841). Nature of the assay: Inhibition of GSK3alpha/beta. The format is protein assay.
For assay [4], the target named is Cyclin-dependent kinase 1/cyclin B1 (Homo sapiens, UniProt P06493). Put plainly: Inhibition of CDK1/cyclin B. The format is protein-complex assay.
The target of another assay is CDK1/Cyclin A (Homo sapiens, UniProt P06493). Put plainly: Inhibition of CDK1/Cyclin A. It counts as protein-complex assay.
Assay [5] has as its target Cyclin-dependent kinase 5/CDK5 activator 1 (Homo sapiens, UniProt Q00535). Nature of the assay: Inhibition of CDK5/P25. It counts as protein-complex assay.
Assay [6] addresses Casein kinase I isoform alpha (Homo sapiens, UniProt P48729). Put plainly: Inhibition of CK1.
Assay [7] addresses Dual specificity tyrosine-phosphorylation-regulated kinase 1A (Mus musculus, UniProt Q61214). Nature of the assay: Inhibition of mouse DYRK1A expressed in Escherichia coli after 20 mins.
The target of assay [8] is T2, Dual specificity tyrosine-phosphorylation-regulated kinase 2 (Homo sapiens, UniProt Q92630).
T2 sequence (Q92630 whole entry): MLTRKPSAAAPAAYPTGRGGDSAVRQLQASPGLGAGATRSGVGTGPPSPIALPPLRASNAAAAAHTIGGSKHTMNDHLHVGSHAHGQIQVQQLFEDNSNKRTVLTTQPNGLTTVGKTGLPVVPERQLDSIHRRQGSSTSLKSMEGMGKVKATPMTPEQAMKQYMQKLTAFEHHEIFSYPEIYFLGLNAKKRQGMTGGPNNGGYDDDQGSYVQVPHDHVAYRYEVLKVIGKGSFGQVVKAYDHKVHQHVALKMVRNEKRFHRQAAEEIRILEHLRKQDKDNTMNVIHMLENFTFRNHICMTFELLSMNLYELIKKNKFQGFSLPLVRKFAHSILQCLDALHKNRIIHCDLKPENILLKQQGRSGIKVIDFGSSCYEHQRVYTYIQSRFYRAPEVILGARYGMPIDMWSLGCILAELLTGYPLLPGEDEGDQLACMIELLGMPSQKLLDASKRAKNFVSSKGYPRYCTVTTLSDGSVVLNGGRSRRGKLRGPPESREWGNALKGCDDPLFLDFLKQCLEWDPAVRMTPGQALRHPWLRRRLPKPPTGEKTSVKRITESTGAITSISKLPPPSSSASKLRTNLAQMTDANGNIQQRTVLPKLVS
Nature of the assay: Inhibition of DYRK2.

The target in assay [9] is Dual specificity protein kinase CLK1 (Homo sapiens, UniProt P49759). Nature of the assay: Inhibition of CLK1.
Dual specificity protein kinase CLK1, sequence (P49759 whole entry): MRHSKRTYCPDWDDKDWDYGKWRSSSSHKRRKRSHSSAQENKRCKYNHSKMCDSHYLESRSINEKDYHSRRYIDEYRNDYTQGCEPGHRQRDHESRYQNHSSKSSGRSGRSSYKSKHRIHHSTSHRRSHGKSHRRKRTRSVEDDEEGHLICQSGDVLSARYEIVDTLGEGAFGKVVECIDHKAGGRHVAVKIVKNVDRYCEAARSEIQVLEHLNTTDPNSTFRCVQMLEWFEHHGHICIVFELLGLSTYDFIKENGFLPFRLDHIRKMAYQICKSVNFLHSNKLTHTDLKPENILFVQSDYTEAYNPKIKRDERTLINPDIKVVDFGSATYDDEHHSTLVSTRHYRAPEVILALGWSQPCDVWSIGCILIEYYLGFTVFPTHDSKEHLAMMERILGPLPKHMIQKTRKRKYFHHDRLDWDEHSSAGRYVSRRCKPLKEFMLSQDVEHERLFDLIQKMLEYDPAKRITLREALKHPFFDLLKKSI

Casein kinase I isoform alpha, sequence (P48729 whole entry, canonical isoform): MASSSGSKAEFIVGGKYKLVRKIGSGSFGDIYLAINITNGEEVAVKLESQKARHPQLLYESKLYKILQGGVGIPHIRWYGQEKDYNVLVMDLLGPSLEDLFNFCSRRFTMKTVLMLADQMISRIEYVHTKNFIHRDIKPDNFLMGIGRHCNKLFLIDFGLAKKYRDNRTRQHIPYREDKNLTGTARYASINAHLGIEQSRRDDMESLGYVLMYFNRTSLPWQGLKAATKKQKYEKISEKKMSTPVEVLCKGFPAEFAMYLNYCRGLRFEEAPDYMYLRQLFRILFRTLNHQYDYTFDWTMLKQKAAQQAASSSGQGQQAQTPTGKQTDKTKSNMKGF
Cyclin-dependent kinase 1/cyclin B1, sequence (P06493 whole entry): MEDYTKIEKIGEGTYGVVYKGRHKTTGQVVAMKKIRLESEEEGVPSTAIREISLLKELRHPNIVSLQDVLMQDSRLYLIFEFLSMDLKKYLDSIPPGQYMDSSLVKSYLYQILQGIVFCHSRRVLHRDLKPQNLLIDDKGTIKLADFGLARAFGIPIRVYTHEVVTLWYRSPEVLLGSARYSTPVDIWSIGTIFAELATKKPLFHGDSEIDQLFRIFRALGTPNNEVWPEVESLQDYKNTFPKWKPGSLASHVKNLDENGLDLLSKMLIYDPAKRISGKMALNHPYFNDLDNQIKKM
Cyclin-dependent kinase 1/cyclin B1, sequence (P14635 whole entry, further chain): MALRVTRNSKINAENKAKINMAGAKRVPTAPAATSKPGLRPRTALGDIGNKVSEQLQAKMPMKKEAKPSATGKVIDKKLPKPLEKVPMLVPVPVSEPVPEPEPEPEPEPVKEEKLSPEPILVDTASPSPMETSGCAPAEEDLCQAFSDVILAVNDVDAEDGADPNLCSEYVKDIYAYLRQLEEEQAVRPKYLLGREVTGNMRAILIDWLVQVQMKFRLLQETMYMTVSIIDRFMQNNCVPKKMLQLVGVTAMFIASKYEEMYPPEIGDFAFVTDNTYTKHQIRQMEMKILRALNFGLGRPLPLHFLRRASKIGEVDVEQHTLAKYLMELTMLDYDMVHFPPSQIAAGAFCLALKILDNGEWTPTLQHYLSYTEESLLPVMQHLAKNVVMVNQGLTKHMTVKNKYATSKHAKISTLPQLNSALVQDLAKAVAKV
CDK1/Cyclin A, sequence (P06493 whole entry): as the sequence (P06493 whole entry) above
CDK1/Cyclin A, sequence (P20248 whole entry, further chain): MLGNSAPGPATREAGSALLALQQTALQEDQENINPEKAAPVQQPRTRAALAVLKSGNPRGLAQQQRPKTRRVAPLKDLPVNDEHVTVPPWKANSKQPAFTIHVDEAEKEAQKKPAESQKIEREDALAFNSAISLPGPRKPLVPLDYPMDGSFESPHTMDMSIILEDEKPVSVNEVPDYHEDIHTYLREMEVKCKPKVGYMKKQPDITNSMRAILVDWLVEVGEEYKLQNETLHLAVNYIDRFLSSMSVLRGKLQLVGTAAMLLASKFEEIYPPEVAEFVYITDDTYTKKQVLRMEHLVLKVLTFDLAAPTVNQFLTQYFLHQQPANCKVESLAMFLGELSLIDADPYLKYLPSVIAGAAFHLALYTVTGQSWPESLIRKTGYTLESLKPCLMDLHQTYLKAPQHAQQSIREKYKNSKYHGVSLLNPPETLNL
Cyclin-dependent kinase 5/CDK5 activator 1, sequence (Q00535 whole entry, canonical isoform): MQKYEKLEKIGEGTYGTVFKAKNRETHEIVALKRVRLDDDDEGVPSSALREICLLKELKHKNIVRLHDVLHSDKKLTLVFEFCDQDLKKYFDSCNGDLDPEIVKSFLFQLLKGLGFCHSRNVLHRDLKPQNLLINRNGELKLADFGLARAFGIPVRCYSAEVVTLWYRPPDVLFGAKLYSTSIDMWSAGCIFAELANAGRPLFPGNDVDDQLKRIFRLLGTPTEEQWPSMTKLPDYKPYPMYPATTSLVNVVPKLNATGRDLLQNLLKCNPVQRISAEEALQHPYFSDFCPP
Cyclin-dependent kinase 5/CDK5 activator 1, sequence (Q15078 whole entry, further chain, canonical isoform): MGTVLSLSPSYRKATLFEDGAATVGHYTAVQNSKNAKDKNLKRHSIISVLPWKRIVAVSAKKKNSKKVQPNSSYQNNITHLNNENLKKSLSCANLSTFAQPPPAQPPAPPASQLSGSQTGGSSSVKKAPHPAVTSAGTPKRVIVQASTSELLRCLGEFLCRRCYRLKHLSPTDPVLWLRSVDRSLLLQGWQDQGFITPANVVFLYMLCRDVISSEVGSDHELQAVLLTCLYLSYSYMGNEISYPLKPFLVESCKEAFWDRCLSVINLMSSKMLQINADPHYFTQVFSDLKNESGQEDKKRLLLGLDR

For the molecule `O=C(NCc1ccc(O)c(O)c1)c1ccc2ccc(C(=O)O)c(O)c2n1`, the pIC50 in [1] was 5.68. The inhibition in assay [2] is over 50%. For the molecule `O=C(Nc1ccc(O)c(O)c1)Nc1ccc2ccc(C(=O)O)c(O)c2n1`, the pIC50 in [1] is 6.00. Turning to `O=C(O)c1ccc2ccc(/C=C/c3ccc(F)c(F)c3)nc2c1O`, the pIC50 in [1] is 5.35. Compared with the last molecule, the pIC50 is 0.65 log units lower.

Molecule `Cc1ccc2cccc(NS(C)(=O)=O)c2n1` gave a negative logarithm of the IC50 (pIC50) in [1] of under 5.00. This molecule showed an inhibition in [2] of over 50%.

In the case of `COc1cc(/C=C/c2ccc3ccc(C(=O)O)c(O)c3n2)cc(Cl)c1O`, the pIC50 in assay [1] is 5.35. In [1], `COc1cc(/C=C/c2ccc3ccc(C(=O)O)c(O)c3n2)ccc1O` gave a pIC50 of 5.70. Compared with the last molecule, the pIC50 is 0.35 log units higher.

Take `O=C(O)c1ccc2ccc(/C=C/c3cc(Br)c(O)c(Br)c3)nc2c1O`: the pIC50 in assay [1] is 5.68. Same read-out and setting: the result for `O=C(O)c1ccc2ccc(/C=C/c3cccc(O)c3O)nc2c1O` reads 5.15. Turning to `COc1ccc(/C=C/c2ccc3ccc(C(=O)O)c(O)c3n2)cc1O`, the pIC50 in assay [1] is 6.30; in assay [4] it was under 5.00; against CDK1/Cyclin A it was under 5.00; in assay [5], under 5.00; in assay [6], under 5.00; in assay [7] it was 5.89. Moreover, the pIC50 was 5.96 in [8] and 5.08 in assay [9]. In assay [3], this molecule came in with an IC50 of over 10 µM. In assay [1], `O=C(O)c1ccc2ccc(/C=C/c3ccc(O)cc3O)nc2c1O` had a pIC50 of 6.30. Take `O=C(NCc1ccc(O)cc1)c1ccc2cccc(C(=O)O)c2n1`: the negative logarithm of the IC50 (pIC50) in assay [1] is under 5.00. The molecule also returned an inhibition in assay [2] of over 50%. The molecule `O=C(O)c1ccc2ccc(/C=C/c3ccc([N+](=O)[O-])cc3)nc2c1O` showed a pIC50 in [1] of 5.47. The molecule `O=C(O)c1cc(/C=C/c2ccc3ccc(C(=O)O)c(O)c3n2)ccc1O` showed a pIC50 in assay [1] of 5.51. This pIC50 and that of the molecule before are within 0.2 log units of each other. In assay [1], `Cc1ccc2ccc(C(=O)O)c(O)c2n1` gave a pIC50 of under 5.00. The inhibition in assay [2] was over 50%.

`O=C(O)c1ccc2ccc(/C=C/c3ccc4c(c3)OCO4)nc2c1O`: the pIC50 in assay [1] was 5.52.

In the case of `Cc1ccc2c(-c3ccccc3)cc(C(=O)O)c(O)c2n1`, the pIC50 in assay [1] was under 5.00. The inhibition in assay [2] was over 50%. In the case of `O=C(O)c1ccc2ccc(/C=C/c3ccccc3)nc2c1O`, in assay [1], the pIC50 is 5.49. The same measure, in the same setting: with `COc1cc(/C=C/c2ccc3ccc(C(=O)O)c(O)c3n2)cc(O)c1O` the figure was 5.51. As to `O=C(O)c1ccc2ccc(/C=C/c3ccc(O)c(O)c3)nc2c1O`, in assay [1], the pIC50 was 5.77. The molecule further gave an inhibition in assay [2] of over 50%. For `Oc1ccc(/C=C/c2ccc3cccc(O)c3n2)cc1O` the same measures were under 5.00 and over 50%. In [1], `O=C(O)c1ccc(O)c2nc(/C=C/c3ccc(O)c(O)c3)ccc12` showed a negative logarithm of the IC50 (pIC50) of under 5.00. Further, the inhibition in assay [2] was under 50%. Consider `O=C(NCc1cc(O)cc(O)c1)c1ccc2ccc(C(=O)O)c(O)c2n1`, for which the pIC50 in [1] was 6.22.

`O=C(NCc1cccc(O)c1O)c1ccc2ccc(C(=O)O)c(O)c2n1` gave a pIC50 in assay [1] of 5.55.

As for `O=C(NCc1ccc(O)cc1O)c1ccc2ccc(C(=O)O)c(O)c2n1`, the pIC50 in assay [1] was 6.70; in assay [4], under 5.00; on CDK1/Cyclin A it was under 5.00; in assay [5] it was under 5.00; in [6], under 5.00; in [7], 5.35. For the same molecule, the pIC50 in assay [8] is 5.20; in assay [9], under 5.00. In assay [3], this molecule registered an IC50 of over 10 µM.

With `O=C(O)c1ccc2ccc(CCc3ccc(O)c(O)c3)nc2c1O`, the pIC50 in [1] was 5.30. Also, the inhibition in [2] was over 50%. In the case of `O=C(NCc1ccc(O)c(O)c1)c1ccc2c(Cl)cc(Cl)c(O)c2n1`, the negative logarithm of the IC50 (pIC50) in assay [1] is under 5.00. For the same molecule, the inhibition in assay [2] is over 50%.

`COc1cc(/C=C/c2ccc3ccc(C(=O)O)c(O)c3n2)cc(OC)c1O`: in assay [1], the pIC50 is 5.60. With `COc1cc(NC(=O)c2ccc3ccc(C(=O)O)c(O)c3n2)cc(O)c1O`, the pIC50 in assay [1] is 6.00. Molecule `Nc1ccc(/C=C/c2ccc3ccc(C(=O)O)c(O)c3n2)cc1` had a pIC50 in assay [1] of 5.40. The molecule `Cc1ccc2cccc(C(=O)O)c2n1` gave a pIC50 in assay [1] of under 5.00. The molecule further registered an inhibition in assay [2] of over 50%. As to `O=C(c1ccncc1)c1ccc2ccc(/C=C/c3ccc(O)c(O)c3)nc2c1O`, the pIC50 in assay [1] was under 5.00. Also, the inhibition in assay [2] is under 50%. `O=C(NNc1ccc([N+](=O)[O-])cc1[N+](=O)[O-])c1ccc2ccc(C(=O)O)c(O)c2n1` showed a pIC50 in [1] of 5.52. In the case of `O=C(NNc1ccccc1)c1ccc2ccc(C(=O)O)c(O)c2n1`, the pIC50 in assay [1] is 5.29. In turn, `O=C(O)c1ccc2ccc(/C=C/c3cc(O)cc(O)c3)nc2c1O` showed a pIC50 in assay [1] of 6.40.

The molecule `COc1ccc(CNC(=O)Nc2ccc3ccc(C(=O)O)c(O)c3n2)cc1` gave a pIC50 in assay [1] of 5.70. Molecule `COc1cc(CNC(=O)c2ccc3ccc(C(=O)O)c(O)c3n2)cc(O)c1O` gave a negative-log IC50 (pIC50) in assay [1] of 5.48. This pIC50 lies 0.22 log units lower than the previous one.

Consider `O=C(O)c1cccc2ccc(/C=C/c3ccc(O)c(O)c3)nc12`, for which, in assay [1], the pIC50 was under 5.00. In addition, the inhibition in [2] is over 50%.

As to `COc1cc(/C=C/c2ccc3ccc(C(=O)O)c(O)c3n2)cc([N+](=O)[O-])c1O`, in assay [1], the pIC50 was 5.55.

Consider `O=C(NCc1ccc(O)c(O)c1)Nc1ccc2ccc(C(=O)O)c(O)c2n1`, for which the pIC50 in assay [1] was 6.30.

Turning to `O=C(O)c1ccc2ccc(/C=C/c3cc(O)c(O)c(O)c3)nc2c1O`, the pIC50 in assay [1] was 5.26. The same measure, in the same setting: the result for `O=C(O)c1ccc2ccc(/C=C/c3ccc(O)cc3)nc2c1O` reads 6.15.
